Measured values: US11066379B2 (THE TEXAS A&M UNIVERSITY SYSTEM, priority 2018, dated 2021)
Values joined by “and” are separate entries in the source; they are usually repeats but may differ in a detail not shown here. Equal entries are not always repeated. Where two headings read alike, the source gives them in different places.

How the values were obtained:
[1] = system: SH-SY5Y cells; experiment: Glutathione assay (Thiol Tracker Violet) after H2O2; type: cell-based, human; conditions: 150 μM H2O2 co-treatment 6 h, two or more concentrations
Method: Glutathione (GSH) levels were determined using Thiol Tracker Violet dye, which reacts with reduced thiols in cells. Reduced glutathione represents the majority of intracellular free thiols, so this probe can be used to estimate its levels in cells. Measurements were performed following manufacturer's protocol. Cells were seeded in 96-well plates at 2.5×10^5 cells/mL for 24 h and treated with compounds at various concentrations (1 μM→1 nM) and 150 μM H2O2. After 6 h, SH-SY5Y cells were washed twice with PBS and loaded with 100 μL of prewarmed Thiol Tracker Violet dye (10 μM) for 30 min at 37° C. The fluorescence was measured at 404 nm excitation and emission at 526 nm. All experiments were performed four times.

[2] = target: T1, active human CypA protein (Homo sapiens, UniProt P62937); experiment: Binding to immobilized CypA by surface plasmon resonance (SPR); conditions: for immunosuppressive activity (SAR profile, FIG. 2): in words, CypA binding / IL-2 inhibition
T1 construct: Active human CypA full-length protein was from Abcam; purchased Abcam
T1 sequence (P62937 whole entry): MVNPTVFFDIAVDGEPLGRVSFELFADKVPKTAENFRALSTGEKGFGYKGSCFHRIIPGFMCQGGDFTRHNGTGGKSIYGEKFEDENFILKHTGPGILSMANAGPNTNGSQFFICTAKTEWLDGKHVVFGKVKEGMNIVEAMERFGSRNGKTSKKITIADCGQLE
Method: Sensor surface activation and ligand immobilization were performed by using HBS-EP as running buffer at a flow rate of 5 μL/min and 25° C. CM5 sensor chips were used as surface where Cyp A or D was immobilized as ligand. The CM5 chip is a glass slide coated with a thin layer of gold with a matrix of carboxymethylated dextran covalently attached. The CM5 chip was activated using an amine coupling kit. […] After activation, the ligand, 100 μg/mL of active human CypA protein dissolved in sodium acetate 10 mM at pH 4.5 was added to be immobilized over a CM5 sensor chip. Finally ethanolamine-HCl was injected to deactivate the remaining active esters and to avoid non-specific binding. […] Once analytes were tested and interaction was observed, individual binding curves were analyzed by determining the kinetic constants of analytes-CypA binding, namely, the observed rate constant (Kobs), the association rate constant (Kass), the dissociation rate constant (Kdiss), and the kinetic equilibrium dissociation constant (KD). At equilibrium, by definition, […]. The pseudo-first order association rate constants Kobs (s^-1) were determined for each compound concentration by using the 1:1 Langmuir association model of BiaEvaluation software (BiaCore, Uppsala, Sweden). Then a representation of Kobs against the corresponding concentration of each compound was done. […] From the equation of these representations, Kass, M^-1 s^-1, gradient of the plot, and […]^-1, intercept of the plot was obtained. Within these two values, the kinetic equilibrium dissociation constant KD for each analyte-CypA binding was obtained. The duration of the sample injection was 2 min at 10 μL/min flow rate. Next, dissociation of bound molecules in HBS-EP buffer flow was studied. The bound drugs were removed from the chip surface before the next injection by adding 1 M Glycine-HCl at pH 2.5 for 1 min. The association phase was used to quantify the compound-CypA or D interactions. All experiments were performed four times.

[3] = system: SH-SY5Y cells; experiment: Neuroprotection against H2O2 toxicity, cell viability by MTT; type: cell-based, human; conditions: 150 μM H2O2 co-treatment 6 h; 0.01, 0.1 and 1 μM
Method: (§1) SH-SY5Y cells were seeded in 96-well plates at a density of 2.5×10^5 cells/mL and allowed to adhere for 24 h. At first, cells were treated only with compounds at concentrations ranging from 10-0.01 μM for 24 h to determine their possible cytotoxic effects. Experiments were carried out three times. For neuroprotective experiments, cells were treated with compounds at non-toxic concentrations (1 μM→1 nM) and 150 μM H2O2 for 6 h. Briefly, cells were washed three times with saline solution and 200 μL of MTT (500 μg/mL) dissolved in saline buffer were added to each well. Following 1 h of incubation at 37° C., the cells were disaggregated with sodium dodecyl sulphate at 5%. Absorbance of formazan crystals was measured at 595 nm with a spectrophotometer plate reader. Saponin was used as death control and its absorbance was subtracted from the other data. All experiments were performed four times.

[4] = system: SH-SY5Y cells; experiment: Cellular toxicity in SH-SY5Y cells (MTT, 24 h); type: cell-based; conditions: for cytotoxicity toward SH-SY5Y cells: 10-0.01 μM, in words; for IC50: Homo sapiens, SH-SY5Y, read-out: IC50 (cellular toxicity)
Description: The MTT (3-[4,5-dimethylthiazol-2-yl]-2,5-diphenyltetrazoliumbromide) assay was used to determine the cytotoxicity of gracilin derivatives in T lymphocytes (Burton, J. D. Methods Mol. Med., 2005, 110, 69-78) and SH-SY5Y cells and the protective effect of these compounds against H2O2 insult in neuroblastoma cells as previously described (Leiros, M., Alonso, E., Sanchez, J. A., Rateb, M. E., Ebel, R., Houssen, W. E., Jaspars, M., Alfonso, A. and Botana, L. M. ACS Chem. Neurosci., 2014, S, 71-80). Human T lymphocytes were cultured in 24 well plates at the concentration of 2.5×10^6 cells/mL and exposed to different compound concentrations (0.01, 0.1, 1 and 10 μM) added to the culture medium. Human T cells were maintained in the presence of the pure compound at 37° C. in humidified 5% CO2/95% air atmosphere for 48 h.
as §1, with “5%.” for “5%. Absorbance of formazan crystals was measured at 595 nm with a spectrophotometer plate reader. Saponin was used as death control and its absorbance was subtracted from the other data. All experiments were performed four times.”
Absorbance of formazan crystals was measured at 595 nm with a spectrophotometer plate reader. Saponin was used as death control and its absorbance was subtracted from the other data. All experiments were performed four times.

[5] = system: SHSY5Y cells; experiment: Neuroprotective effects summarised over all five assays (viability, TMRM, ROS, GSH, mPTP); type: cell-based, human; conditions: 0.001, 0.01 or 0.1 μM; H2O2 challenge
Method: As described previously, neuroprotective agents can mediate their effects through inhibition of CypD, an isoform of CypA. […] All assays were performed at the indicated concentrations (0.001, 0.01, or 0.1 μM) based on initial cytotoxicity determined with SHSY5Y cells (Table 1).

CC(=O)O[C@H]1O[C@@H](OC(C)=O)[C@@H]2CC[C@](O)(C3(C)CCCC(C)(C)C3)C[C@H]12 (stereo partly drawn) [Compound 22, (1S,3R,3aS,5R,7aR)-5-hydroxy-5-(1,3,3-trimethylcyclohexyl)octahydroisobenzo-furan-1,3-diyl diacetate]
GSH levels [1]: recovered GSH levels
immunosuppressive activity (SAR profile, FIG. 2) [2]: inactive
protection of cell viability against H2O2 insult [3]: protected cells against H2O2 insult at almost all concentrations
cytotoxicity toward SH-SY5Y cells ([4]; 24 h): led to cell death at the higher concentrations tested
IC50 ([4]; 24 h incubation): 6.5 µM
neuroprotective / antioxidant effects based on all five assays [5]: displayed significant neuroprotective effects

CC(=O)O[C@@H]1OC[C@H]2C=C(C3(C)CCCCC3)CC[C@@H]12 [Compound 27a, (1S,3aS,7aR)-5-(1-methylcyclohexyl)-1,3,3a,6,7,7a-hexahydroisobenzofuran-1-yl acetate]
GSH levels [1]: recovered GSH levels
immunosuppressive activity (SAR profile, FIG. 2) [2]: inactive
protection of cell viability against H2O2 insult [3]: protected cells against H2O2 insult at almost all concentrations
cytotoxicity toward SH-SY5Y cells ([4]; 24 h): led to cell death at the higher concentrations tested
neuroprotective / antioxidant effects based on all five assays [5]: displayed significant neuroprotective effects

CC(=O)O[C@H]1OC[C@@H]2C=C([C@@]3(C)CCCC(C)(C)C3)CC[C@H]12 [Compound 29a, (1R,3aR,7aS)-5-(1,3,3-trimethylcyclohexyl)-1,3,3a,6,7,7a-hexahydroisobenzofuran-1-yl acetate]
GSH levels [1]: recovered GSH levels
Kd ([2]; SPR, immobilized CypA): ~3 µM and 2.8 to 6.8 µM
protection of cell viability against H2O2 insult [3]: protected cells against H2O2 insult at almost all concentrations
cytotoxicity toward SH-SY5Y cells ([4]; 24 h): led to cell death at the higher concentrations tested
IC50 ([4]; 24 h): 16.5 µM
neuroprotective / antioxidant effects based on all five assays [5]: displayed significant neuroprotective effects
